Assay results taken from ChEMBL document CHEMBL1201862, “PubChem BioAssay data set” (2004).
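All cell lines were grown in 96-well plates and treated with compound for 48 hours. GI50 = concentration required for 50% inhibition of growth.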 The source made the active and inactive calls. Cut-off read from the data, not from the text of the source: active = GI50 up to about 1.1 µM and inactive = higher.

What was measured:
Experiment in all cases: NCI-60 cell line screen, 48 h
OVCAR-8 = system: OVCAR-8
SF-539 = system: SF-539
SK-OV-3 = system: SK-OV-3
M14 = system: M14
786-0 = system: 786-0
SNB-75 = system: SNB-75
EKVX = system: EKVX
HOP-62 = system: HOP-62
A549 = system: A549
MDA-N = system: MDA-N
PC-3 = system: PC-3
SF-268 = system: SF-268
UO-31 = system: UO-31
Hs-578T = system: Hs-578T
HT-29 = system: HT-29
OVCAR-3 = system: OVCAR-3
SK-MEL-5 = system: SK-MEL-5
DU-145 = system: DU-145
SNB-19 = system: SNB-19
UACC-62 = system: UACC-62

Measured: GI50

CN(C)CCCNC(=O)CNC(=O)c1cc(NC(=O)c2cc(NC(=O)c3cc(NC(=O)CCNC(=O)c4cc(NC(=O)c5cc(NC(=O)c6nccn6C)cn5C)cn4C)cn3C)cn2C)cn1C
inactive: OVCAR-8 > 100 µM | SF-539 > 100 µM | SK-OV-3 > 100 µM | M14 > 100 µM | 786-0 > 100 µM | SNB-75 41.3 µM | EKVX > 100 µM | HOP-62 > 100 µM | A549 > 100 µM | MDA-N > 100 µM | PC-3 > 100 µM | SF-268 > 100 µM | UO-31 > 100 µM | Hs-578T > 100 µM | HT-29 > 100 µM | OVCAR-3 > 100 µM | SK-MEL-5 > 100 µM | DU-145 > 100 µM | SNB-19 > 100 µM

COC(=O)c1ccc(COC(=O)N2C=CCC2C(=O)O)cc1 (centres undefined)
inactive: OVCAR-8 > 100 µM | SF-539 > 100 µM | SK-OV-3 > 100 µM | M14 > 100 µM | 786-0 > 100 µM | SNB-75 > 100 µM | HOP-62 > 100 µM | A549 > 100 µM | MDA-N > 100 µM | PC-3 > 100 µM | SF-268 > 100 µM | UO-31 > 100 µM | UACC-62 > 100 µM | Hs-578T > 100 µM | HT-29 > 100 µM | OVCAR-3 > 100 µM | SK-MEL-5 > 100 µM | DU-145 > 100 µM | SNB-19 > 100 µM

Oc1c(C2=NNC(c3cccs3)C2)ccc2ccccc12 (centres undefined)
inactive: OVCAR-8 27.5 µM | SF-539 20.1 µM | SK-OV-3 27.4 µM | M14 14.4 µM | 786-0 32.9 µM | SNB-75 21.3 µM | HOP-62 26.9 µM | A549 25.3 µM | MDA-N 16.5 µM | PC-3 27 µM | SF-268 10.9 µM | UO-31 32.4 µM | UACC-62 15.6 µM | Hs-578T 17.1 µM | HT-29 17.9 µM | OVCAR-3 18 µM | SK-MEL-5 23.2 µM | DU-145 20.9 µM

CC(=O)OCC1OC(n2c(=O)[nH]c(=O)c3sccc32)C(Br)C1OC(C)=O (centres undefined)
inactive: OVCAR-8 > 100 µM | SF-539 > 100 µM | M14 > 100 µM | 786-0 > 100 µM | SNB-75 > 100 µM | EKVX > 100 µM | HOP-62 > 100 µM | A549 > 100 µM | MDA-N > 100 µM | PC-3 > 100 µM | SF-268 > 100 µM | UO-31 > 100 µM | Hs-578T > 100 µM | HT-29 > 100 µM | OVCAR-3 > 100 µM | SK-MEL-5 > 100 µM | DU-145 > 100 µM | SNB-19 > 100 µM
